# Laboratory results published in US4965280A, “Antifungal carbinols” (E. I. Du Pont de Nemours and Company, priority 1989, dated 1990).
# Read-outs that look alike come from different tables or passages of the source.
# Tests used:
# [1] = tested on: Rhizoctonia solani; assay: Example F rice sheath blight; assay type: in vivo; conditions: Rhizoctonia solani, 144 h, read-out: disease control rating, Ex. F
# Procedure, shortened: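 Rice seedlings receive a run-off spray of compound suspended at 100 or 20 ppm. The carrier is purified water containing 250 ppm of a polyhydric alcohol ester surfactant, with acetone making up 6% of the final volume.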
# [2] = tested on: Aspergillus fumigatus ATCC 28214; assay: In vitro antifungal MIC, microtiter broth dilution; conditions: Aspergillus fumigatus, ATCC28214, 24 h, read-out: MIC values, A. fumigatus, 30°, 24 hours
# [3] = tested on: Sclerotium rolfsii; assay: Example M southern blight; assay type: in vivo; conditions: Agroathelia rolfsii, 336 h; 5 kg/ha; read-out: disease control rating, Ex. M
# Procedure: […] Seeds and soil were then inoculated with a mixture of sand, cereal and mycelium of the fungus Sclerotium rolfsii, causal agent of sourthern blight, and incubated in a growth chamber at 30° C. for 14 days. Disease ratings were then made.
# [4] = tested on: Erysiphe graminis f. sp. tritici; assay: Example D wheat powdery mildew; assay type: in vivo; conditions: Blumeria graminis, 144 h, read-out: disease control rating, Ex. D
# Procedure, shortened: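 Wheat seedlings receive a run-off foliar spray of compound suspended in purified water at 100 or 20 ppm. The carrier holds 250 ppm TREM 014 plus acetone amounting to 6% of final volume.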
# [5] = tested on: Cercosporidium personatum; assay: Example B Peanut Late Leafspot; assay type: in vivo; conditions: Nothopassalora personata, read-out: disease control rating, Ex. B
# Procedure, shortened: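 Each compound is first taken up in acetone, which makes up 6% of the final spray volume. It is then suspended in purified water with 250 ppm TREM 014 at 100 or 20 ppm. Seedlings of peanut are sprayed until run-off.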
# [6] = tested on: Venturia inaequalis; assay: Example A apple scab; assay type: in vivo; conditions: read-out: disease control rating, Ex. A
# Procedure, shortened: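 Apple seedlings receive a run-off spray of compound suspended at 100 or 20 ppm. The spray liquid is purified water holding 250 ppm TREM 014, a polyhydric alcohol ester surfactant, plus acetone at 6% of final volume as the solvent.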
# [7] = tested on: Candida albicans ATCC 11651; assay: In vivo systemic Candida infection in mice, primary assay; parameters: species or system Candida albicans; CF-1 female mice; conditions: Candida albicans, 150 mg/kg per day, read-out: % Survival
# Procedure, shortened: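 CF-1 female mice (20 g, 10 per group) were infected IV with 0.2 ml of 1×10^7/ml C. albicans ATCC 11651, then given test compound subcutaneously at 50 or 150 mg/kg/day at 1 and 6 h post-infection and once daily for three more days. Survival was followed for 21 days against infected untreated mice; ≥70% protection at 14 days was scored active.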
# [8] = tested on: Candida albicans ATCC 11651; assay: In vitro antifungal MIC, microtiter broth dilution; conditions: Candida albicans, ATCC11651, 24 h, read-out: MIC values, C. albicans, 30°, 24 hours
# [9] = tested on: Pythium aphanadermatum; assay: Example J cucumber damping off; assay type: in vivo; conditions: Pythium, 336 h; 5 kg/ha; read-out: disease control rating, Ex. J
# Procedure: […] Seeds and soil were then inoculated with a mixture of sand, cereal and mycelium of the fungus Pythium aphanadermatum, causal agent of cucumber damping off, and incubated in a growth chamber at 30° C. for 14 days. Disease ratings were then made.
# [10] = tested on: Puccinia recondita; assay: Example G wheat leaf rust; assay type: in vivo; conditions: read-out: disease control rating, Ex. G
# [11] = tested on: Phytophthora infestans; assay: whole plant or invertebrate; assay type: in vivo; conditions: Phytophthora infestans, in Solanum lycopersicum, read-out: disease control rating, Ex. H, 100 PPM
# [12] = tested on: Pyricularia oryzae; assay: whole plant or invertebrate; assay type: in vivo; conditions: Pyricularia oryzae, 120 h; for pest or weed control at 100 ppm: read-out: disease control rating, Ex. E, 100 PPM; for pest or weed control at 20 ppm: read-out: disease control rating, Ex. E, 20 PPM
# [13] = tested on: Botrytis cinerea; assay: Example C bean grey mold; assay type: in vivo; conditions: Botrytis cinerea, 24 h, read-out: disease control rating, Ex. C
# Procedure, shortened: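 Compound is first dissolved in acetone, the acetone making up 6% of the final volume. The solution is then suspended in purified water with 250 ppm of the polyhydric alcohol ester surfactant TREM 014 to give 100 or 20 ppm. Seedlings of broad bean receive this spray until liquid runs off.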
# [14] = tested on: Rhizoctonia solani; assay: Example K cotton blight; assay type: in vivo; conditions: 336 h, 5 kg/ha, read-out: disease control rating, Ex. K
# Procedure: […] Seeds and soil were then inoculated with a mixture of sand, cereal and mycelium of the fungus Rhizoctonia solani, causal agent of cotton blight, and incubated in a growth chamber at 30° C. for 14 days. Disease ratings were then made.
# [15] = tested on: Plasmorpara viticola; assay: Example I grape downy mildew; assay type: in vivo; conditions: read-out: disease control rating, Ex. I
# Procedure, shortened: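 Grape seedlings sprayed to run-off; test suspension 100 or 20 ppm compound, acetone 6% v/v final, 250 ppm TREM 014 in purified water.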
structure (smiles),measurement,setting,value
C=C(c1ccc(F)cc1)C(O)(CCCC)Cn1cncn1 (centres unmarked) [Example 6],pest or weed control at 100 ppm,[1],0%
same,MIC,[2],25 µg/mL
same,pest or weed control at 5000 g/ha,[3],0%
same,pest or weed control at 100 ppm,[4],98%
same,pest or weed control at 100 ppm,[5],82%
same,pest or weed control at 100 ppm,[6],0%
same,responders at 150 mg/kg,"[7]; ATCC11651, 168 h, day 7",50%
same,responders at 150 mg/kg,"[7]; ATCC11651, 336 h, day 14",10%
same,responders at 150 mg/kg,"[7]; ATCC11651, 504 h, day 21",0%
same,MIC,[8],1.6 µg/mL
same,pest or weed control at 5000 g/ha,[9],0%
same,pest or weed control at 100 ppm,[10],96%
same,pest or weed control at 100 ppm,[11],23%
same,pest or weed control at 100 ppm,[12],0%
same,pest or weed control at 100 ppm,[13],84%
same,pest or weed control at 5000 g/ha,[14],0%
same,pest or weed control at 100 ppm,[15],0%
"C=C(c1cccc(F)c1)C(O)(Cn1cncn1)c1ccc(Cl)cc1Cl (centres unmarked) [Example 16, 2-(2,4-Dichlorophenyl)-3-(3-fluorophenyl)-1-(1H-1,2,4-triazol-1-yl)-3-buten-2-ol]",pest or weed control at 20 ppm,[1],0%
same,pest or weed control at 100 ppm,[1],0%
same,MIC,[2],6.3 µg/mL
same,pest or weed control at 5000 g/ha,[3],0%
same,pest or weed control at 20 ppm,[4],67%
same,pest or weed control at 20 ppm,[5],99%
same,pest or weed control at 20 ppm,[6],74%
same,responders at 150 mg/kg,"[7]; ATCC11651, 168 h, day 7",100%
same,responders at 150 mg/kg,"[7]; ATCC11651, 336 h, day 14",100%
same,responders at 150 mg/kg,"[7]; ATCC11651, 504 h, day 21",100%
same,MIC,[8],0.03 µg/mL
same,pest or weed control at 5000 g/ha,[9],0%
same,pest or weed control at 20 ppm,[10],100%
same,pest or weed control at 100 ppm,[11],0%
same,pest or weed control at 20 ppm,[12],0%
same,pest or weed control at 100 ppm,[12],0%
same,pest or weed control at 20 ppm,[13],27%
same,pest or weed control at 100 ppm,[13],46%
same,pest or weed control at 5000 g/ha,[14],0%
same,pest or weed control at 100 ppm,[15],23%
C=C(c1cccc(F)c1)C(O)(Cn1cncn1)c1ccc(Cl)cc1 (centres unmarked) [Example 17],pest or weed control at 20 ppm,[1],0%
same,pest or weed control at 100 ppm,[1],81%
same,MIC,[2],12.5 µg/mL
same,pest or weed control at 5000 g/ha,[3],0%
same,pest or weed control at 20 ppm,[4],95%
same,pest or weed control at 20 ppm,[5],100%
same,pest or weed control at 20 ppm,[6],80%
same,responders at 150 mg/kg,"[7]; ATCC11651, 168 h, day 7",100%
same,responders at 150 mg/kg,"[7]; ATCC11651, 336 h, day 14",90%
same,responders at 150 mg/kg,"[7]; ATCC11651, 504 h, day 21",70%
same,MIC,[8],0.03 µg/mL
same,pest or weed control at 5000 g/ha,[9],0%
same,pest or weed control at 20 ppm,[10],100%
same,pest or weed control at 100 ppm,[11],0%
same,pest or weed control at 20 ppm,[12],0%
same,pest or weed control at 100 ppm,[12],0%
same,pest or weed control at 20 ppm,[13],57%
same,pest or weed control at 100 ppm,[13],89%
same,pest or weed control at 5000 g/ha,[14],0%
same,pest or weed control at 100 ppm,[15],42%
C=C(c1ccc(Cl)cc1)C(O)(Cn1cncn1)c1ccc(F)cc1 (centres unmarked) [Example 25],pest or weed control at 100 ppm,[1],48%
same,MIC,[2],25 µg/mL
same,pest or weed control at 5000 g/ha,[3],35%
same,pest or weed control at 100 ppm,[4],91%
same,pest or weed control at 100 ppm,[5],100%
same,pest or weed control at 100 ppm,[6],100%
same,responders at 150 mg/kg,"[7]; ATCC11651, 168 h, day 7",100%
same,responders at 150 mg/kg,"[7]; ATCC11651, 336 h, day 14",100%
same,responders at 150 mg/kg,"[7]; ATCC11651, 504 h, day 21",50%
same,MIC,[8],1.6 µg/mL
same,pest or weed control at 5000 g/ha,[9],0%
same,pest or weed control at 100 ppm,[10],97%
same,pest or weed control at 100 ppm,[11],0%
same,pest or weed control at 100 ppm,[12],31%
same,pest or weed control at 100 ppm,[13],96%
same,pest or weed control at 100 ppm,[15],0%
C=C(c1ccc(Cl)cc1)C(O)(Cn1cncn1)c1ccccc1Cl (centres unmarked) [Example 671],pest or weed control at 100 ppm,[1],100%
same,MIC,[2],0.2 µg/mL
same,pest or weed control at 5000 g/ha,[3],0%
same,pest or weed control at 100 ppm,[4],94%
same,pest or weed control at 100 ppm,[5],100%
same,pest or weed control at 100 ppm,[6],100%
same,responders at 150 mg/kg,"[7]; ATCC11651, 168 h, day 7",100%
same,responders at 150 mg/kg,"[7]; ATCC11651, 336 h, day 14",100%
same,responders at 150 mg/kg,"[7]; ATCC11651, 504 h, day 21",60%
same,MIC,[8],0.03 µg/mL
same,pest or weed control at 5000 g/ha,[9],0%
same,pest or weed control at 100 ppm,[10],100%
same,pest or weed control at 100 ppm,[11],0%
same,pest or weed control at 100 ppm,[12],84%
same,pest or weed control at 100 ppm,[13],92%
same,pest or weed control at 100 ppm,[15],84%
